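Growth conditions: 96-well plates. Treatment: test compound, 48 hours, 5 concentrations. Analysis: linear interpolation between bracketing concentrations; unreached endpoints set to highest concentration. TGI: concentration producing complete growth inhibition.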
Experiments:
Experiment in all cases: NCI tumour cell line growth inhibition, 48 h
786-0 renal = test system: 786-0 renal
A498 renal = test system: A498 renal
A549 NSCLC = test system: A549 NSCLC
ACHN renal = test system: ACHN renal
CCRF-CEM leukemia = test system: CCRF-CEM leukemia
COLO 205 colon = test system: COLO 205 colon
DLD-1 colon = test system: DLD-1 colon
DMS 114 small cell lung = test system: DMS 114 small cell lung
DMS 273 small cell lung = test system: DMS 273 small cell lung
EKVX NSCLC = test system: EKVX NSCLC
HCC-2998 colon = test system: HCC-2998 colon
HCT-116 colon = test system: HCT-116 colon
HCT-15 colon = test system: HCT-15 colon
HOP-18 NSCLC = test system: HOP-18 NSCLC
HOP-62 NSCLC = test system: HOP-62 NSCLC
HOP-92 NSCLC = test system: HOP-92 NSCLC
HT29 colon = test system: HT29 colon
IGROV1 ovarian = test system: IGROV1 ovarian
K-562 leukemia = test system: K-562 leukemia
KM12 colon = test system: KM12 colon
KM20L2 colon = test system: KM20L2 colon
LOX IMVI melanoma = test system: LOX IMVI melanoma
LXFL 529 NSCLC = test system: LXFL 529 NSCLC
M14 melanoma = test system: M14 melanoma
M19-MEL melanoma = test system: M19-MEL melanoma
MALME-3M melanoma = test system: MALME-3M melanoma
MOLT-4 leukemia = test system: MOLT-4 leukemia
NCI-H226 lung = test system: NCI-H226 lung
NCI-H23 lung = test system: NCI-H23 lung
NCI-H460 lung = test system: NCI-H460 lung
NCI-H522 lung = test system: NCI-H522 lung
OVCAR-3 ovarian = test system: OVCAR-3 ovarian
OVCAR-4 ovarian = test system: OVCAR-4 ovarian
OVCAR-5 ovarian = test system: OVCAR-5 ovarian
OVCAR-8 ovarian = test system: OVCAR-8 ovarian
RXF 393 renal = test system: RXF 393 renal
RXF-631 renal = test system: RXF-631 renal
SF-268 CNS = test system: SF-268 CNS
SF-295 CNS = test system: SF-295 CNS
SF-539 CNS = test system: SF-539 CNS
SK-MEL-2 melanoma = test system: SK-MEL-2 melanoma
SK-MEL-28 melanoma = test system: SK-MEL-28 melanoma
SK-MEL-5 melanoma = test system: SK-MEL-5 melanoma
SK-OV-3 ovarian = test system: SK-OV-3 ovarian
SN12C renal = test system: SN12C renal
SNB-19 CNS = test system: SNB-19 CNS
SNB-75 CNS = test system: SNB-75 CNS
SNB-78 CNS = test system: SNB-78 CNS
SW-620 colon = test system: SW-620 colon
TK-10 renal = test system: TK-10 renal
U251 CNS = test system: U251 CNS
UACC-257 melanoma = test system: UACC-257 melanoma
UACC-62 melanoma = test system: UACC-62 melanoma
UO-31 renal = test system: UO-31 renal
XF 498 CNS = test system: XF 498 CNS
CAKI-1 renal = test system: CAKI-1 renal
HL-60(TB) leukemia = test system: HL-60(TB) leukemia
RPMI-8226 leukemia = test system: RPMI-8226 leukemia
SR leukemia = test system: SR leukemia

Measured: TGI

C/C(=N/NC(=O)c1ccccc1O)c1ccc(/C(C)=N\NC(=O)c2ccccc2O)c2nc3cc(C)c(C)cc3nc12
> 100 µM: 786-0 renal | A498 renal | A549 NSCLC | ACHN renal | CCRF-CEM leukemia | COLO 205 colon | DLD-1 colon | DMS 114 small cell lung | DMS 273 small cell lung | EKVX NSCLC | HCC-2998 colon | HCT-116 colon | HCT-15 colon | HOP-18 NSCLC | HOP-62 NSCLC | HOP-92 NSCLC | HT29 colon | IGROV1 ovarian | K-562 leukemia | KM12 colon | KM20L2 colon | LOX IMVI melanoma | LXFL 529 NSCLC | M14 melanoma | M19-MEL melanoma | MALME-3M melanoma | MOLT-4 leukemia | NCI-H226 lung | NCI-H23 lung | NCI-H460 lung | NCI-H522 lung | OVCAR-3 ovarian | OVCAR-4 ovarian | OVCAR-5 ovarian | OVCAR-8 ovarian | RXF 393 renal | RXF-631 renal | SF-268 CNS | SF-295 CNS | SF-539 CNS | SK-MEL-2 melanoma | SK-MEL-28 melanoma | SK-MEL-5 melanoma | SK-OV-3 ovarian | SN12C renal | SNB-19 CNS | SNB-75 CNS | SNB-78 CNS | SW-620 colon | TK-10 renal | U251 CNS | UACC-257 melanoma | UACC-62 melanoma | UO-31 renal | XF 498 CNS

Cc1ccc(NC(=O)CC(=O)n2nc(-c3ccccc3)c(N=Nc3ccccc3[N+](=O)[O-])c2-c2ccccc2)cc1
> 100 µM: 786-0 renal | A549 NSCLC | ACHN renal | CAKI-1 renal | CCRF-CEM leukemia | COLO 205 colon | DLD-1 colon | DMS 114 small cell lung | DMS 273 small cell lung | EKVX NSCLC | HCC-2998 colon | HCT-116 colon | HL-60(TB) leukemia | HOP-18 NSCLC | HOP-62 NSCLC | HOP-92 NSCLC | HT29 colon | IGROV1 ovarian | K-562 leukemia | KM12 colon | KM20L2 colon | LOX IMVI melanoma | LXFL 529 NSCLC | M14 melanoma | M19-MEL melanoma | MALME-3M melanoma | MOLT-4 leukemia | NCI-H23 lung | NCI-H460 lung | NCI-H522 lung | OVCAR-3 ovarian | OVCAR-4 ovarian | OVCAR-5 ovarian | OVCAR-8 ovarian | RPMI-8226 leukemia | RXF 393 renal | RXF-631 renal | SF-268 CNS | SF-295 CNS | SF-539 CNS | SK-MEL-2 melanoma | SK-MEL-28 melanoma | SK-MEL-5 melanoma | SK-OV-3 ovarian | SN12C renal | SNB-19 CNS | SNB-75 CNS | SNB-78 CNS | SR leukemia | SW-620 colon | TK-10 renal | U251 CNS | UACC-257 melanoma | UACC-62 melanoma | UO-31 renal | XF 498 CNS
